Experimental findings from patent US8173360B2, “Cell death inhibitor” (Takeda Pharmaceutical Company Limited, priority 2002, dated 2012) are described below.

Assay [1] deals with primary cardiomyocytes derived from rat neonates. Particulars: simvastatin 0.3 μM or atorvastatin 1 μM, 3 days. The protocol: The primary cardiomyocytes derived from rat neonates obtained in EXPERIMENTAL EXAMPLE 2 were suspended in Medium 199 containing 10% fetal cow serum in 6×10^5 cells/ml, and the suspension was seeded on a 96-well plate in 0.1 mlwell, followed by incubation for a day in a CO2 incubator set at 37° C. and 5% CO2. After stirring with a micromixer (manufactured by Taiyo Kagaku Kogyo Co., Ltd.), the medium was replaced 3 times with serum-free Medium 199 to remove serum. […] Thereafter, fetal cow serum was added thereto to become 10%. After further incubation in a CO2 incubator set at 37° C. and 5% CO2 for about 17 hours, the viable cell count was determined using a cell count assay kit (manufactured by Dojin Chemical Laboratory) in which WST-8 was used as a chromogen, thereby to examine the inhibitory activity of myocardial cell death induced by the statin. The experiment described above was carried out independently in 3 runs. The viable cell count in each of the experimental groups was named the mean value (±SD) of the viable cell counts in each experimental group, when the viable cell count in the group with no statin added was made 1.

The subject of assay [2] is genes under control of Antioxidant response element (ARE). The assay is described as follows: Gene expression analysis by DNA chip. In kind it is cell-based, rat. Particulars: for Increasing Rate of Expression: 21 hours, without compound = 1. As for the experimental part: After gently stiffing, the plate was washed 3 times with Medium 199 medium to remove serum. […] The medium was then removed and total RNA was recovered using RNeasy Mini Kit (manufactured by QIAGEN). Using the total RNA, exhaustive analysis of gene expression was performed on GeneChip arrays for expression analysis (Rat Genome U34A Arrays: manufactured by AFFYMETRIX). The increasing rate of expression of each gene was expressed in terms of the expression level with the addition of the compound, when the expression level without addition of any compound was made 1.

Assay [3] deals with Normal human umbilical vein endothelial cells. The experiment in a line: Inhibitory activity against serum depletion-induced cell death of vascular smooth muscle. In kind it is cell-based. Particulars: serum-free MCDB131 medium, 3 days, WST-8.
The test system of assay [4] is heme oxygenase-1. The experiment in a line: Heme oxygenase-1 production-increasing activity (western blotting). Particulars: for Increasing Rate of Production (heme oxygenase-1): 24 hours, without compound = 1. It counts as cell-based, rat. As for the experimental part: The plate was washed 3 times with Medium 199 medium to remove serum. Compound I was added to the plate, followed by incubation for 24 hours at 37° C. and 5% CO2. After completion of the incubation, the cardiomyocytes were washed once with PBS(−), and 100 μl of cell lysis buffer [10 mM Tris(hydroxymethyl)aminomethane, pH 7.4, 150 mM NaCl, 1 mM EDTA.2Na, 1 mM ethylene glycol-bis(β-aminoethylether]-N,N,N′,N′-tetraacetic acid, 0.5 mM (p-aminophenyl)methanesulfonyl fluoride hydrochloride, 200 μM sodium β-glycerophosphate n-hydrate, 20 mM NaF, 2 mM sodium diphosphate decahydrate, 10 μg/ml aprotinin, 10 μg/ml leupeptin, 1% Triton X-100, 0.5% Nonidet P40, 0.1% sodium dodesyl sulfate) was added thereto. After the cell debris was scraped from the plate using a cell scraper, the cell lysis buffer was recovered. The recovered cell lysis buffer was mixed with a sample buffer (Tris-SDS-ME Sample Buffer; manufactured by Daiichi Pure Chemicals Co., Ltd.) in an equal volume. The mixture was heat-treated at 95° C. for 5 minutes, followed by SDS polyacrylamide electrophoresis using Multigel (manufactured by Daiichi Pure Chemicals Co., Ltd.). Next, nitrocellulose membrane (Hybond-ECL; manufactured by Amersham Pharmacia Biotech) soaked in a blotting buffer [0.1 M Tris(hydroxymethyl)aminomethane, 0.192 M glycine, 20% ethanol] for at least 10 minutes, blotting filter paper, dialysis membrane and gel were set on Horize-Blot (manufactured by ATTO, Co.) and treated with 100 mA/gel (64 cm^2) for an hour to adsorb the protein in the gel onto the nitrocellulose membrane. Thereafter, the nitrocellulose membrane was soaked in a blocking buffer [TTBS buffer (20 mM Tris-HCl, pH 7.6, 0.137 M NaCl, 0.1% Tween-20) containing 5% skimmed milk powders] and stirred at room temperature for an hour for blocking. […] After completion of the reaction, the membrane was washed 3 times with TTBS buffer and the amount of protein was determined using a western blotting detection reagent (ECL+Plus; manufactured by Amersham) and Hyperfilm ECL (manufactured by Amersham). […]
(In western blotting, separated proteins are transferred to a membrane and probed.)

The subject of assay [5] is primary cardiomyocytes derived from rat neonates. The assay is described as follows: Inhibitory activity against myocardial cell death induced by doxorubicin. In kind it is cell-based. Particulars: doxorubicin 200 μM, 18 hours; sample added 3 hours before. The protocol:
Medium 199 and a sample to be tested were added thereto, followed by incubation for 3 hours. After the incubation, doxorubicin (DOX: final concentration of 200 μM) was added to the mixture, which was incubated for further 18 hours to induce cell death. Subsequently, fetal cow serum was added thereto to reach 10%. […] Thus, the myocardial cell death inhibitory activity was examined.

Assay [6] concerns the target T1, rat MIF (Rattus norvegicus, UniProt P30904).
T1 construct: the region encoding MIF was amplified from the complementary DNA (cDNA) library of rat and mouse brains; made in house; host or cells: Escherichia coli BL21 (DE3)
The experiment in a line: Binding to immobilized rat MIF by surface plasmon resonance (BIACORE 3000). Particulars: 10 μM in PBS, rat MIF immobilized on sensor chip CM5. The protocol: The binding of rat MIF obtained in REFERENCE EXAMPLE 6 to Compound 1 obtained in REFERENCE EXAMPLE 1 was analyzed using BIACORE 3000 (manufactured by Biacore).
Rat MIF was immobilized on a sensor chip CM5 (manufactured by Biacore). Then, phosphate buffered saline (PBS) containing 10 μM of Compound 1 was flown over the sensor chip and changes in the surface plasmon resonance signal were monitored as the binding of the compound to rat MIF.
Rat MIF obtained in REFERENCE EXAMPLE 6 was immobilized on a sensor chip CM5 (manufactured by Biacore Co., Ltd.). Thereafter, phosphate buffered saline (PBS) containing 10 μM of 3-[2-(4-oxo-4H-1,3-benzothiazin-2-yl)-4-pyridyl]propionic acid (the compound of EXAMPLE 308 described in WO 03/020719) was flown over the sensor chip and changes in surface plasmon resonance signal were monitored as the binding of the compound to rat MIF.
(In general: SPR reads the build-up and loss of mass on a sensor chip optically.)

Molecules are shown by their SMILES.

Take `O=c1nc(-c2ccccn2)sc2ccccc12` [Compound 1, 2-(2-Pyridyl)-4H-1,3-benzothiazin-4-one]: in assay [1], the “inhibition of myocardial cell death induced by statin” value is “exhibits the activity of inhibiting myocardial cell death induced by the HMG-CoA reductase inhibitor”. Moreover, the “Increasing Rate of Expression” value in assay [2] (Bilirunin-specific UDP-glucuronosyltransferase) came to 5.2; in assay [2] (Gamma-glutamylcysteine synthetase), 2.4; in assay [2] (Glutathione S-transferase Yb subunit), 2.5; in assay [2] (Glutathione S-transferase Yc1 subunit), 2.1; in assay [2] (Heme oxygenase-1) it was 2.0; in assay [2] (Liver glutathione S-transferase Ya subunit) it was 11.6. For the same molecule, the “Increasing Rate of Expression” value in assay [2] (Liver glutathione S-transferase Yc subunit) came to 2.3; in assay [2] (NAD(P)H-menadione oxidereductase), 2.8; in assay [2] (NAD(P)H: quinone reductase), 9.4; in assay [2] (UDP-glucuronosyltransferase, exon 1), 5.0. Moreover, the “expression of the genes under control of Antioxidant response element (ARE)” value in assay [2] (statement in words) was “enhances expression of the genes under control of Antioxidant response element (ARE)”. In addition, in assay [3], the “inhibition of cell death induced by serum depletion” value is given as “exhibits the activity of inhibiting vascular smooth muscle cell death induced by serum depletion”. For the same molecule, the results for the “Increasing Rate of Production (heme oxygenase-1)” value in assay [4] (0.04 μM) and in assay [4] (0.4 μM) were 1.6 and 2.5, respectively. Besides, the “production amount of heme oxygenase-1” value in assay [4] (statement in words) is “increases the production amount of heme oxygenase-1”. The “inhibition of myocardial cell death induced by doxorubicin” value in assay [5] is “exhibits the activity of inhibiting myocardial cell death induced by doxorubicin”. Further, the “binding of the compound to rat MIF (changes in surface plasmon resonance signal)” value in assay [6] was “binds to MIF”.
